Test results taken from patent US10189836B2, “Therapeutic compounds, compositions and methods of use thereof” (Genentech, Inc., priority 2015, dated 2019).

Legend:
[1] = target: isolated recombinant JAK1 kinase domain (Homo sapiens (Human), UniProt P23458); test: JAK1 enzyme assay (Caliper LabChip, Ki); assay type: biochemical; details: isolated recombinant JAK1 kinase domain, 1.5 nM enzyme, ATP 25 μM
[2] = target: isolated recombinant JAK2 kinase domain (Homo sapiens (Human), UniProt O60674); test: JAK2 enzyme assay (Caliper LabChip, Ki); assay type: biochemical; details: isolated recombinant JAK2 kinase domain, 0.2 nM enzyme, ATP 25 μM
Sequence of isolated recombinant JAK2 kinase domain (O60674 849-1124): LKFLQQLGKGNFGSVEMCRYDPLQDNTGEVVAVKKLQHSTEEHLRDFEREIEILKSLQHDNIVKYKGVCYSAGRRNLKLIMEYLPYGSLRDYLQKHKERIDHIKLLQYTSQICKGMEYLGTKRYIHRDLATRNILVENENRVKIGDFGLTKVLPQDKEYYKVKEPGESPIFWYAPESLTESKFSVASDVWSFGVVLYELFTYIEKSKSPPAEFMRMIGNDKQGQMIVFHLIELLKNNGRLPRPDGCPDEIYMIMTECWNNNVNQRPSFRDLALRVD

Sequence of isolated recombinant JAK1 kinase domain (P23458 875-1153): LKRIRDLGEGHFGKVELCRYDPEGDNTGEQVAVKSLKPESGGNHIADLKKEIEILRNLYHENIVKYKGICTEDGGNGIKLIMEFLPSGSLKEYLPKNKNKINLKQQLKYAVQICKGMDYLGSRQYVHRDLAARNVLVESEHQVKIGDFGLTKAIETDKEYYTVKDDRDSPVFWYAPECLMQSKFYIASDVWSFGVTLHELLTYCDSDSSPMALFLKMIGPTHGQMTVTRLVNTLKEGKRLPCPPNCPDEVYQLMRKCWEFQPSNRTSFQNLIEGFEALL

| SMILES | Ki [1] [nM] | Ki [2] [nM] |
| --- | --- | --- |
| CN1CCN(C(=O)Cn2cc(Nc3nc4c(N5CC6CCC(C5)N6C(=O)N5CCC(F)(F)CC5)cccn4n3)cn2)CC1 [Example 188, 2-[4-[[8-[8-(4,4-difluoropiperidine-1-carbonyl)-3,8-diazabicyclo[3.2.1]octan-3-yl]-[1,2,4]triazolo[1,5-a]pyridin-2-yl]amino]pyrazol-1-yl]-1-(4-methylpiperazin-1-yl)ethanone] | 0.2 | 0.2 |
| CN1CCN(C(=O)Cn2cc(Nc3nc4c(N5CC6CCC(C5)N6C(=O)Cc5ccncc5)cccn4n3)cn2)CC1 [Example 42, 1-[3-[2-[[1-[2-(4-methylpiperazin-1-yl)-2-oxo-ethyl]pyrazol-4-yl]amino]-[1,2,4]triazolo[1,5-a]pyridin-8-yl]-3,8-diazabicyclo[3.2.1]octan-pyridyl)ethanone] | 1.6 | 5.7 |
| CSC1CCN(C(=O)N2C3CCC2CN(c2cccn4nc(Nc5cnn(CC(=O)N6CCN(C)CC6)c5)nc24)C3)CC1 [Example 180, 1-(4-methylpiperazin-1-yl)-2-[4-[[8-[8-(4-methylsulfanylpiperidine-1-carbonyl)-3,8-diazabicyclo[3.2.1]octan-3-yl]-[1,2,4]triazolo[1,5-a]pyridin-2-yl]amino]pyrazol-1-yl]ethanone] | 1.3 | 2.6 |
| CN1CCN(C(=O)Cn2cc(Nc3nc4c(N5CC6CCC(C5)N6C(=O)CC5CC(F)(F)C5(F)F)cccn4n3)cn2)CC1 (stereo not shown) [Example 91, 1-[3-[2-[[1-[2-(4-methylpiperazin-1-yl)-2-oxo-ethyl]pyrazol-4-yl]amino]-[1,2,4]triazolo[1,5-a]alpyridin-8-yl]-3,8-diazabicyclo[3.2.1]octan-8-yl]-2(2,2,3,3-tetrafluorocyclobutyl) ethanone] | 0.8 | 0.9 |
| CN1CCN(C(=O)Cn2cc(Nc3nc4c(N5CC6CCC(C5)N6C(=O)CCC(F)(F)F)cccn4n3)cn2)CC1 [Example 5, 4,4,4-trifluoro-1-[3-[2-[[1-[2-(4-methylpiperazin-1-yl)-2-oxo-ethyl]pyrazol-4-yl]amino]-[1,2,4]triazolo[1,5-a]pyridin-8-yl]-3,8-diazabicyclo[3.2.1]octan-8-yl]butan-1-one] | 0.6 | 1.2 |
| CN1CCN(C(=O)Cn2cc(Nc3nc4c(N5CC6CCC(C5)N6S(=O)(=O)Cc5ccc(C#N)cc5)cccn4n3)cn2)CC1 [Example 168, 4-[[3-[2-[[1-[2-(4-methylpiperazin-1-yl)-2-oxo-ethyl]pyrazo1-4-yl]amino]-[1,2,4]triazolo[1,5-a]pyridin-8-yl]-3,8-diazabicyclo[3.2.1]octan-8-yl]sulfonylmethyl]-benzonitrile] | 2.7 | 4.4 |
| CN1CCN(C(=O)Cn2cc(Nc3nc4c(N5CC6CCC(C5)N6S(=O)(=O)CCCC(F)(F)F)cccn4n3)cn2)CC1 [Example 174, 1-(4-methylpiperazin-1-yl)-2-[4-[[8-[8-(4,4,4-trifluorobutylsulfonyl)-3,8-diazabicyclo[3.2.1]octan-3-yl]-[1,2,4]triazolo[1,5-a]pyridin-2-yl]amino]pyrazol-1-yl]ethanone] | 0.7 | 1.1 |
| CN1CCN(C(=O)Cn2cc(Nc3nc4c(N5CC6CCC(C5)N6S(=O)(=O)Cc5ccc(F)cc5)cccn4n3)cn2)CC1 [Example 160, 2-[4-[[8-[8-[(4-fluorophenyl)methylsulfonyl]-3,8-diazabicyclo[3.2.1]octan-3-yl]-[1,2,4]triazolo[1,5-a]pyridin-2-yl]amino]pyrazol-1-yl]-1-(4-methylpiperazin-1-yl)ethanone] | 0.6 | 0.9 |
| CN1CCN(C(=O)Cn2cc(Nc3nc4c(N5CC6CCC(C5)N6S(=O)(=O)c5ccccc5C#N)cccn4n3)cn2)CC1 [Example 147, 2-[[3-[2-[[1-[2-(4-methylpiperazin-1-yl)-2-oxo-ethyl]pyrazol-4-yl]amino]-[1,2,4]triazolo[1,5-a]pyridin-8-yl]-3,8-diazabicyclo[3.2.1]octan-8-yl]sulfonyl]benzonitrile] | 0.4 | 0.3 |
| CN1CCN(C(=O)Cn2cc(Nc3nc4c(N5CC6CCC(C5)N6Cc5ccccc5C#N)cccn4n3)cn2)CC1 [Example 63, 2-[[3-[2-[[1-[2-(4-methylpiperazin-1-yl)-2-oxo-ethyl]pyrazol-4-yl]amino]-[1,2,4]triazolo[1,5-a]pyridin-8-yl]-3,8-diazabicyclo[3.2.1]octan-8-yl]methyl]benzonitrile] | 1.8 | 2.4 |
| CN1CCN(C(=O)Cn2cc(Nc3nc4c(N5CC6CCC(C5)N6C(=O)c5cncs5)cccn4n3)cn2)CC1 [Example 78, 1-(4-methylpiperazin-1-yl)-2-[4-[[8-[8-(thiazole-5-carbonyl)-3,8-diazabicyclo[3.2.1]octan-3-yl]-[1,2,4]triazolo[1,5-a]pyridin-2-yl]amino]pyrazol-1-yl]ethanone] | 0.8 | 1.3 |
| CN1CCN(C(=O)Cn2cc(Nc3nc4c(N5CC6CCC(C5)N6S(=O)(=O)c5ccccc5F)cccn4n3)cn2)CC1 [Example 150, 2-[4-[[8-[8-(2-fluorophenyl)sulfonyl-3,8-diazabicyclo[3.2.1]octan-3-yl]-[1,2,4]triazolo[1,5-a]pyridin-2-yl]amino]pyrazol-1-yl]-1-(4-methylpiperazin-1-yl)ethanone] | 0.7 | 1.5 |
| CN1CCN(C(=O)Cn2cc(Nc3nc4c(N5CC6CCC(C5)N6C(=O)c5cnc(CC(F)(F)F)s5)cccn4n3)cn2)CC1 [Example 196] | 0.6 | 1.1 |
| CC(C)(C#N)CNC1CCN(C(=O)Cn2cc(Nc3nc4c(N5CC6CCC(C5)N6C(=O)N5CC(C(F)(F)F)C5)cccn4n3)cn2)CC1 [Example 131, 2,2-dimethyl-3-[[1-[2-[4-[[8-[8-[3-(trifluoromethyl)azetidine-1-carbonyl]-3,8-diazabicyclo[3.2.1]octan-3-yl]-[1,2,4]triazolo[1,5-a]pyridin-2-yl]amino]pyrazol-1-yl]acetyl]-4-piperidyl]amino]-propanenitrile] | 1.1 | 0.7 |
| CN1CCN(C(=O)Cn2cc(Nc3nc4c(N5CC6CCC(C5)N6S(=O)(=O)c5cccc(Cl)c5)cccn4n3)cn2)CC1 [Example 88, 2-[4-[[8-[8-(3-chlorophenyl)sulfonyl-3,8-diazabicyclo[3.2.1]octan-3-yl]-[1,2,4]triazolo[1,5-a]pyridin-2-yl]amino]pyrazol-1-yl]-1 - (4-methylpiperazin-1-yl)ethanone] | 0.3 | 0.3 |
| CSc1cccc(C(=O)N2C3CCC2CN(c2cccn4nc(Nc5cnn(CC(=O)N6CCN(C)CC6)c5)nc24)C3)c1 [Example 100, 1-(4-methylpiperazin-1-yl)-2-[4-[[8-[8-(3-methylsulfanylbenzoyl)-3,8-diazabicyclo[3.2.1]octan-3-yl]-[1,2,4]triazolo[1,5-a]pyridin-2-yl]amino]pyrazol-1-yl]ethanone] | 1.2 | 4.2 |
| CN1CCN(C(=O)Cn2cc(Nc3nc4c(N5C[C@H]6CC[C@@H](C5)[C@H]6OCc5cccnc5)cccn4n3)cn2)CC1 [Example 84, 1-(4-methylpiperazin-1-yl)-2-[4-[[8-[(1S,5R)-8-(3-pyridylmethoxy)-3-azabicyclo[3.2.1]octan-3-yl]-[1,2,4]triazolo[1,5-a]pyridin-2-yl]amino]pyrazol-1-yl]ethanone] | 0.4 | 0.8 |
| O=C(Cn1cc(Nc2nc3c(N4CC5CCC(C4)N5C(=O)N4CC(C(F)(F)F)C4)cccn3n2)cn1)N1CCC(CN2CCOCC2)CC1 [Example 121, 1-[4-(morpholinomethyl)-1-piperidyl]-2-[4-[[8-[8-[3-(trifluoromethyl)azetidine-1-carbonyl]-3,8-diazabicyclo[3.2.1]octan-3-yl]-[1,2,4]triazolo[1,5-a]pyridin-2-yl]amino]pyrazol-1-yl]ethanone] | 0.7 | 0.7 |
| CN1CCN(C(=O)Cn2cc(Nc3nc4c(N5CC6CCC(C5)N6S(=O)(=O)c5cccc(F)c5)cccn4n3)cn2)CC1 [Example 156, 2-[4-[[8-[8-(3-fluorophenyl)sulfonyl-3,8-diazabicyclo[3.2.1]octan-3-yl]-[1,2,4]triazolo[1,5-a]pyridin-2-yl]amino]pyrazol-1-yl]-1-(4-methylpiperazin-1-yl)ethanone] | 1.3 | 3.7 |
| CN1CCN(C(=O)Cn2cc(Nc3nc4c(N5CC6CCC(C5)N6S(=O)(=O)c5ccc(Cl)cc5F)cccn4n3)cn2)CC1 [Example 136, 2-[4-[[8-[8-(4-chloro-2-fluoro-phenyl)sulfonyl-3,8-diazabicyclo[3.2.1]octan-3-yl]-[1,2,4]triazolo[1,5-a]pyridin-2-yl]amino]pyrazol-1-yl]-1-(4-methylpiperazin-1-yl)ethanone] | 2 | 6.2 |
